The values below come from ChEMBL document CHEMBL3608278 (J Med Chem, 2015).

As usually defined, the IC50 is the concentration that inhibits the measured activity by half.

The target of assay [1] is T1, Potassium voltage-gated channel subfamily A member 3 (Homo sapiens, UniProt P22001). It is filed as cell-based, CHO-K1.
The target in assay [2] is T1, Potassium voltage-gated channel subfamily A member 3. The experiment in a line: cell-based. Further details: species or system Blood.
The target is the same in assay [3]. Further details: species or system Blood.

T1 sequence (P22001 whole entry): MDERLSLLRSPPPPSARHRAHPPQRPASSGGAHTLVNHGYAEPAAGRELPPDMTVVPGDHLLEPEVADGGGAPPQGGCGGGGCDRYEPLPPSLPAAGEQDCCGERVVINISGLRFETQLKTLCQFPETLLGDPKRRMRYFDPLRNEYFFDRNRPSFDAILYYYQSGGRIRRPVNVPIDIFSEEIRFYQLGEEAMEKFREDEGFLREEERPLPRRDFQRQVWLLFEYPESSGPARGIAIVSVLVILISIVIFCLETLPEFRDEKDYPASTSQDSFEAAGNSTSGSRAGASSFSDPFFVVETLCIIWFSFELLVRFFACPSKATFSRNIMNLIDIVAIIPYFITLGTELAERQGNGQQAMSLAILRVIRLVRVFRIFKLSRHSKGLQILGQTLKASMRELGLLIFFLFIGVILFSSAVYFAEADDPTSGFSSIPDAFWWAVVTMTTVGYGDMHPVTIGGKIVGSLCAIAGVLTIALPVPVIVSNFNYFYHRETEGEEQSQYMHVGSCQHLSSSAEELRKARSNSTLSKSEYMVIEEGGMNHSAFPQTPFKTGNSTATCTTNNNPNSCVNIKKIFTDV

Turning to `CC[C@H](C)[C@@H]1NC(=O)[C@@H](NC(=O)[C@H](CO)NC(=O)[C@@H](N)CCCNC(=N)N)CSSC[C@@H](C(=O)O)NC(=O)[C@H]([C@@H](C)O)NC(=O)CNC(=O)[C@@H]2CSSC[C@@H]3NC(=O)[C@H](CCC(N)=O)NC(=O)[C@H](Cc4ccccc4)NC(=O)[C@H](C)NC(=O)[C@H]([C@@H](C)O)NC(=O)[C@H](CSSC[C@H](NC(=O)[C@H](Cc4ccccc4)NC(=O)[C@H](CO)NC(=O)[C@H](CC(C)C)NC(=O)[C@H](CCCNC(=N)N)NC(=O)[C@H](Cc4ccc(O)cc4)NC(=O)[C@H](CCCNC(=N)N)NC(=O)[C@H](CCSC)NC(=O)[C@H](CO)NC(=O)[C@H](Cc4cnc[nH]4)NC(=O)[C@H](CCCCN)NC3=O)C(=O)N[C@@H](CCCNC(=N)N)C(=O)N[C@@H](CCCCN)C(=O)N[C@@H]([C@@H](C)O)C(=O)N2)NC(=O)[C@H](CCCNC(=N)N)NC(=O)[C@H](CO)NC(=O)[C@H](CCCCN)NC(=O)[C@@H]2CCCN2C(=O)[C@H]([C@@H](C)CC)NC(=O)[C@H]([C@@H](C)O)NC(=O)[C@H](CC(=O)O)NC1=O`, the IC50 in assay [1] is > 3.33 nM; in assay [2], > 100 nM; in assay [3], > 100 nM.

With `CC[C@H](C)[C@@H]1NC(=O)[C@@H](NC(=O)[C@H](CO)NC(=O)[C@@H](N)CCCNC(=N)N)CSSC[C@@H](C(=O)O)NC(=O)[C@H]([C@@H](C)O)NC(=O)CNC(=O)[C@@H]2CSSC[C@@H]3NC(=O)[C@H](CCC(N)=O)NC(=O)[C@H](Cc4ccccc4)NC(=O)[C@H](C)NC(=O)[C@H]([C@@H](C)O)NC(=O)[C@H](CSSC[C@H](NC(=O)[C@H](Cc4ccccc4)NC(=O)[C@H](CO)NC(=O)[C@H](CC(C)C)NC(=O)[C@H](CCCNC(=N)N)NC(=O)[C@H](CCCNC(=N)N)NC(=O)[C@H](CCCCN)NC(=O)[C@H](CCSC)NC(=O)[C@H](CO)NC(=O)[C@H](Cc4cnc[nH]4)NC(=O)[C@H](CCCCN)NC3=O)C(=O)N[C@@H](CCCNC(=N)N)C(=O)N[C@@H](CCCCN)C(=O)N[C@@H]([C@@H](C)O)C(=O)N2)NC(=O)[C@H](CCCNC(=N)N)NC(=O)[C@H](CO)NC(=O)[C@H](CCCCN)NC(=O)[C@@H]2CCCN2C(=O)[C@H]([C@@H](C)CC)NC(=O)[C@H]([C@@H](C)O)NC(=O)[C@H](CC(=O)O)NC1=O`, the 50% inhibitory concentration (IC50) is > 3.33 nM in assay [1], > 100 nM in assay [2] and > 100 nM in assay [3].

`CC[C@H](C)[C@@H]1NC(=O)[C@@H](NC(=O)[C@H](CCCCN)NC(=O)[C@@H](N)CCCNC(=N)N)CSSC[C@@H](C(=O)O)NC(=O)[C@H]([C@@H](C)O)NC(=O)CNC(=O)[C@@H]2CSSC[C@@H]3NC(=O)[C@H](CCC(N)=O)NC(=O)[C@H](Cc4ccccc4)NC(=O)[C@H](C)NC(=O)[C@H]([C@@H](C)O)NC(=O)[C@H](CSSC[C@H](NC(=O)[C@H](Cc4ccccc4)NC(=O)[C@H](CO)NC(=O)[C@H](CC(C)C)NC(=O)[C@H](CCCNC(=N)N)NC(=O)[C@H](Cc4ccc(O)cc4)NC(=O)[C@H](CCCCN)NC(=O)[C@H](CCSC)NC(=O)[C@H](CO)NC(=O)[C@H](Cc4cnc[nH]4)NC(=O)[C@H](CCCCN)NC3=O)C(=O)N[C@@H](CCCNC(=N)N)C(=O)N[C@@H](CCCCN)C(=O)N[C@@H]([C@@H](C)O)C(=O)N2)NC(=O)[C@H](CCCNC(=N)N)NC(=O)[C@H](CO)NC(=O)[C@H](CCCCN)NC(=O)[C@@H]2CCCN2C(=O)[C@H]([C@@H](C)CC)NC(=O)[C@H]([C@@H](C)O)NC(=O)[C@H](CC(=O)O)NC1=O`: the results for the IC50 in assay [1], in assay [2] and in assay [3] were 0.146 nM, 0.099 nM and 0.094 nM, respectively.

For the molecule `CC[C@H](C)[C@@H]1NC(=O)[C@@H](NC(=O)[C@H](CO)NC(=O)[C@@H](N)CCCNC(=N)N)CSSC[C@@H](C(=O)O)NC(=O)[C@H]([C@@H](C)O)NC(=O)CNC(=O)[C@@H]2CSSC[C@@H]3NC(=O)[C@H](CCC(N)=O)NC(=O)[C@H](Cc4ccccc4)NC(=O)[C@H](C)NC(=O)[C@H]([C@@H](C)O)NC(=O)[C@H](CSSC[C@H](NC(=O)[C@H](CCCNC(=N)N)NC(=O)[C@H](CO)NC(=O)[C@H](CC(C)C)NC(=O)[C@H](CCCNC(=N)N)NC(=O)[C@H](Cc4ccc(O)cc4)NC(=O)[C@H](CCCCN)NC(=O)[C@H](CCSC)NC(=O)[C@H](CO)NC(=O)[C@H](Cc4cnc[nH]4)NC(=O)[C@H](CCCCN)NC3=O)C(=O)N[C@@H](CCCNC(=N)N)C(=O)N[C@@H](CCCCN)C(=O)N[C@@H]([C@@H](C)O)C(=O)N2)NC(=O)[C@H](CCCNC(=N)N)NC(=O)[C@H](CO)NC(=O)[C@H](CCCCN)NC(=O)[C@@H]2CCCN2C(=O)[C@H]([C@@H](C)CC)NC(=O)[C@H]([C@@H](C)O)NC(=O)[C@H](CC(=O)O)NC1=O`, the half-maximal inhibitory concentration (IC50) in assay [1] is > 3.33 nM; in assay [2], 13 nM; in assay [3], 59.7 nM.

On to `CC[C@H](C)[C@@H]1NC(=O)[C@@H](NC(=O)[C@H](CO)NC(=O)[C@@H](N)CCCNC(=N)N)CSSC[C@@H](C(=O)O)NC(=O)[C@H]([C@@H](C)O)NC(=O)CNC(=O)[C@@H]2CSSC[C@@H]3NC(=O)[C@H](CCC(N)=O)NC(=O)[C@H](Cc4ccccc4)NC(=O)[C@H](C)NC(=O)[C@H]([C@@H](C)O)NC(=O)[C@H](CSSC[C@H](NC(=O)[C@H](Cc4ccccc4)NC(=O)[C@H](CO)NC(=O)[C@H](CC(C)C)NC(=O)[C@H](CCCNC(=N)N)NC(=O)[C@H](Cc4ccc(O)cc4)NC(=O)[C@H](CCCCN)NC(=O)[C@H](CCSC)NC(=O)[C@H](CO)NC(=O)[C@H](Cc4c[nH]cn4)NC(=O)[C@H](CCCCN)NC3=O)C(=O)N[C@@H](CCCNC(=N)N)C(=O)N[C@@H](CCCCN)C(=O)N[C@@H](CCCNC(=N)N)C(=O)N2)NC(=O)[C@H](CCCNC(=N)N)NC(=O)[C@H](CO)NC(=O)[C@H](CCCCN)NC(=O)[C@@H]2CCCN2C(=O)[C@H]([C@@H](C)CC)NC(=O)[C@H]([C@@H](C)O)NC(=O)[C@H](CC(=O)O)NC1=O`, for which the concentration for half-maximal inhibition (IC50) was > 3.33 nM in assay [1], 11.1 nM in assay [2] and 39 nM in assay [3].

With `CC[C@H](C)[C@@H]1NC(=O)[C@@H](NC(=O)[C@H](CO)NC(=O)[C@@H](N)CCCNC(=N)N)CSSC[C@@H](C(=O)O)NC(=O)[C@H]([C@@H](C)O)NC(=O)[C@H](CCCNC(=N)N)NC(=O)[C@@H]2CSSC[C@@H]3NC(=O)[C@H](CCC(N)=O)NC(=O)[C@H](Cc4ccccc4)NC(=O)[C@H](C)NC(=O)[C@H]([C@@H](C)O)NC(=O)[C@H](CSSC[C@H](NC(=O)[C@H](Cc4ccccc4)NC(=O)[C@H](CO)NC(=O)[C@H](CC(C)C)NC(=O)[C@H](CCCNC(=N)N)NC(=O)[C@H](Cc4ccc(O)cc4)NC(=O)[C@H](CCCCN)NC(=O)[C@H](CCSC)NC(=O)[C@H](CO)NC(=O)[C@H](Cc4cnc[nH]4)NC(=O)[C@H](CCCCN)NC3=O)C(=O)N[C@@H](CCCNC(=N)N)C(=O)N[C@@H](CCCCN)C(=O)N[C@@H]([C@@H](C)O)C(=O)N2)NC(=O)[C@H](CCCNC(=N)N)NC(=O)[C@H](CO)NC(=O)[C@H](CCCCN)NC(=O)[C@@H]2CCCN2C(=O)[C@H]([C@@H](C)CC)NC(=O)[C@H]([C@@H](C)O)NC(=O)[C@H](CC(=O)O)NC1=O`, the concentration for half-maximal inhibition (IC50) worked out at 0.221 nM in assay [1], 0.089 nM in assay [2] and 0.223 nM in assay [3].

For `CC[C@H](C)[C@@H]1NC(=O)[C@@H](NC(=O)[C@H](CO)NC(=O)[C@@H](N)CCCNC(=N)N)CSSC[C@@H](C(=O)O)NC(=O)[C@H](CCCNC(=N)N)NC(=O)CNC(=O)[C@@H]2CSSC[C@@H]3NC(=O)[C@H](CCC(N)=O)NC(=O)[C@H](Cc4ccccc4)NC(=O)[C@H](C)NC(=O)[C@H]([C@@H](C)O)NC(=O)[C@H](CSSC[C@H](NC(=O)[C@H](Cc4ccccc4)NC(=O)[C@H](CO)NC(=O)[C@H](CC(C)C)NC(=O)[C@H](CCCNC(=N)N)NC(=O)[C@H](Cc4ccc(O)cc4)NC(=O)[C@H](CCCCN)NC(=O)[C@H](CCSC)NC(=O)[C@H](CO)NC(=O)[C@H](Cc4cnc[nH]4)NC(=O)[C@H](CCCCN)NC3=O)C(=O)N[C@@H](CCCNC(=N)N)C(=O)N[C@@H](CCCCN)C(=O)N[C@@H]([C@@H](C)O)C(=O)N2)NC(=O)[C@H](CCCNC(=N)N)NC(=O)[C@H](CO)NC(=O)[C@H](CCCCN)NC(=O)[C@@H]2CCCN2C(=O)[C@H]([C@@H](C)CC)NC(=O)[C@H]([C@@H](C)O)NC(=O)[C@H](CC(=O)O)NC1=O`, the IC50 in assay [1] was 0.191 nM; in assay [2], 0.357 nM; in assay [3] it was 0.475 nM.

Take `CC[C@H](C)[C@@H]1NC(=O)[C@@H](NC(=O)[C@H](CO)NC(=O)[C@@H](N)CCCCN)CSSC[C@@H](C(=O)O)NC(=O)[C@H]([C@@H](C)O)NC(=O)CNC(=O)[C@@H]2CSSC[C@@H]3NC(=O)[C@H](CCC(N)=O)NC(=O)[C@H](Cc4ccccc4)NC(=O)[C@H](C)NC(=O)[C@H]([C@@H](C)O)NC(=O)[C@H](CSSC[C@H](NC(=O)[C@H](Cc4ccccc4)NC(=O)[C@H](CO)NC(=O)[C@H](CC(C)C)NC(=O)[C@H](CCCNC(=N)N)NC(=O)[C@H](Cc4ccc(O)cc4)NC(=O)[C@H](CCCCN)NC(=O)[C@H](CCSC)NC(=O)[C@H](CO)NC(=O)[C@H](Cc4cnc[nH]4)NC(=O)[C@H](CCCCN)NC3=O)C(=O)N[C@@H](CCCNC(=N)N)C(=O)N[C@@H](CCCCN)C(=O)N[C@@H]([C@@H](C)O)C(=O)N2)NC(=O)[C@H](CCCNC(=N)N)NC(=O)[C@H](CO)NC(=O)[C@H](CCCCN)NC(=O)[C@@H]2CCCN2C(=O)[C@H]([C@@H](C)CC)NC(=O)[C@H]([C@@H](C)O)NC(=O)[C@H](CC(=O)O)NC1=O`: the IC50 in assay [1] worked out at 0.154 nM; in assay [2], 0.036 nM; in assay [3], 0.073 nM.
